Reference: PubChem BioAssay AID1745844 (Carcinogenic Potency Database (CPDB), 2022)

Tested on: rodent lifetime carcinogenesis bioassay, tumor incidence TD50
Test: carcinogenic potency in animals, long-term in vivo studies, CPDB compilation (AID 1745844)
Details: inhaled

## C=CCl
hamster, strain Syrian Golden, females, site: all sites, lesion: hemangiosarcoma, dosed 26 weeks, study length 104 weeks
  TD50: 78.6 mg/kg/day
hamster, strain Syrian Golden, females, site: all sites, lesion: hemangiosarcoma, dosed 52 weeks, study length 104 weeks
  TD50: 314 mg/kg/day
hamster, strain Syrian Golden, females, site: all sites, lesion: hemangiosarcoma, dosed 78 weeks, study length 104 weeks
  TD50: 1920 mg/kg/day
hamster, strain Syrian Golden, females, site: mammary gland, lesion: carcinoma, dosed 26 weeks, study length 104 weeks
  TD50: 32.3 mg/kg/day
hamster, strain Syrian Golden, females, site: mammary gland, lesion: carcinoma, dosed 52 weeks, study length 104 weeks
  TD50: 27.7 mg/kg/day
hamster, strain Syrian Golden, females, site: mammary gland, lesion: carcinoma, dosed 78 weeks, study length 104 weeks
  TD50: 61 mg/kg/day
hamster, strain Syrian Golden, females, site: skin, lesion: carcinoma, dosed 52 weeks, study length 104 weeks
  TD50: 121 mg/kg/day
hamster, strain Syrian Golden, females, site: stomach, lesion: adenoma, dosed 26 weeks, study length 104 weeks
  TD50: 47.2 mg/kg/day
hamster, strain Syrian Golden, females, site: stomach, lesion: adenoma, dosed 52 weeks, study length 104 weeks
  TD50: 1010 mg/kg/day
hamster, strain Syrian Golden, females, site: stomach, lesion: adenoma, dosed 78 weeks, study length 104 weeks
  TD50: 205 mg/kg/day
hamster, strain Syrian Golden, males, site: acoustic duct, lesion: epithelioma, dosed 30 weeks, study length 101 weeks
  TD50: 855 mg/kg/day
hamster, strain Syrian Golden, males, site: all sites, lesion: leukemia, dosed 30 weeks, study length 101 weeks
  TD50: 25800 mg/kg/day
hamster, strain Syrian Golden, males, site: extrahepatic tissue, lesion: angioma, dosed 30 weeks, study length 101 weeks
  TD50: 9800 mg/kg/day
hamster, strain Syrian Golden, males, site: forestomach, lesion: epithelioma, dosed 30 weeks, study length 101 weeks
  TD50: 55 mg/kg/day
hamster, strain Syrian Golden, males, site: liver, lesion: angioma, dosed 30 weeks, study length 101 weeks
  TD50: 2380 mg/kg/day
hamster, strain Syrian Golden, males, site: liver, lesion: angiosarcoma, dosed 30 weeks, study length 101 weeks
  TD50: 91800 mg/kg/day
hamster, strain Syrian Golden, males, site: liver, lesion: hepatoma, dosed 30 weeks, study length 101 weeks
  TD50: 1730 mg/kg/day
hamster, strain Syrian Golden, males, site: skin, lesion: epithelioma, dosed 30 weeks, study length 101 weeks
  TD50: 9350 mg/kg/day
hamster, strain Syrian Golden, males, site: skin, lesion: melanoma, dosed 30 weeks, study length 101 weeks
  TD50: 7630 mg/kg/day
mouse, strain Charles River CD1, females, site: liver, lesion: hemangiosarcoma, dosed 26 weeks, study length 58 weeks
  TD50: 91.9 mg/kg/day
mouse, strain Charles River CD1, females, site: lung, lesion: alveolar/bronchiolar tumor, dosed 26 weeks, study length 58 weeks
  TD50: 142 mg/kg/day
mouse, strain Charles River CD1, females, site: mammary gland, lesion: malignant tumor, dosed 26 weeks, study length 58 weeks
  TD50: 249 mg/kg/day
mouse, strain Charles River CD1, males, site: liver, lesion: hemangiosarcoma, dosed 26 weeks, study length 78 weeks
  TD50: 32 mg/kg/day
mouse, strain Charles River CD1, males, site: lung, lesion: alveolar/bronchiolar tumor, dosed 26 weeks, study length 78 weeks
  TD50: 88.7 mg/kg/day
mouse, strain Swiss, females, site: all sites, lesion: hemangiosarcoma, dosed 26 weeks, study length 104 weeks
  TD50: 12.5 mg/kg/day
mouse, strain Swiss, females, site: all sites, lesion: hemangiosarcoma, dosed 52 weeks, study length 104 weeks
  TD50: 13.8 mg/kg/day
mouse, strain Swiss, females, site: all sites, lesion: hemangiosarcoma, dosed 78 weeks, study length 104 weeks
  TD50: 36.1 mg/kg/day
mouse, strain Swiss, females, site: any site (literature study), lesion: several types, types named in the paper, dosed 30 weeks, study length 77 weeks
  TD50: 600 mg/kg/day
mouse, strain Swiss, females, site: extrahepatic tissue, lesion: angioma, dosed 30 weeks, study length 77 weeks
  TD50: 70900 mg/kg/day
mouse, strain Swiss, females, site: extrahepatic tissue, lesion: angiosarcoma, dosed 30 weeks, study length 77 weeks
  TD50: 736 mg/kg/day
mouse, strain Swiss, females, site: forestomach, lesion: epithelioma, dosed 30 weeks, study length 77 weeks
  TD50: 9820 mg/kg/day
mouse, strain Swiss, females, site: liver, lesion: angioma, dosed 30 weeks, study length 77 weeks
  TD50: 196 mg/kg/day
mouse, strain Swiss, females, site: liver, lesion: angiosarcoma, dosed 30 weeks, study length 77 weeks
  TD50: 98.8 mg/kg/day
mouse, strain Swiss, females, site: liver, lesion: hepatoma, dosed 30 weeks, study length 77 weeks
  TD50: 12200 mg/kg/day
mouse, strain Swiss, females, site: lung, lesion: adenoma, dosed 30 weeks, study length 77 weeks
  TD50: 402 mg/kg/day
mouse, strain Swiss, females, site: lung, lesion: carcinoma, dosed 26 weeks, study length 104 weeks
  TD50: 36.6 mg/kg/day
mouse, strain Swiss, females, site: lung, lesion: carcinoma, dosed 52 weeks, study length 104 weeks
  TD50: 55.5 mg/kg/day
mouse, strain Swiss, females, site: lung, lesion: carcinoma, dosed 78 weeks, study length 104 weeks
  TD50: 143 mg/kg/day
mouse, strain Swiss, females, site: mammary gland, lesion: carcinoma, dosed 26 weeks, study length 104 weeks
  TD50: 10.6 mg/kg/day
mouse, strain Swiss, females, site: mammary gland, lesion: carcinoma, dosed 30 weeks, study length 77 weeks
  TD50: 3750 mg/kg/day
mouse, strain Swiss, females, site: mammary gland, lesion: carcinoma, dosed 52 weeks, study length 104 weeks
  TD50: 22.9 mg/kg/day
mouse, strain Swiss, females, site: mammary gland, lesion: carcinoma, dosed 78 weeks, study length 104 weeks
  TD50: 32.2 mg/kg/day
mouse, strain Swiss, females, site: skin, lesion: epithelioma, dosed 30 weeks, study length 77 weeks
  TD50: 25100 mg/kg/day
mouse, strain Swiss, males, site: any site (literature study), lesion: several types, types named in the paper, dosed 30 weeks, study length 77 weeks
  TD50: 26.1 mg/kg/day
mouse, strain Swiss, males, site: extrahepatic tissue, lesion: angioma, dosed 30 weeks, study length 77 weeks
  TD50: 12300 mg/kg/day
mouse, strain Swiss, males, site: extrahepatic tissue, lesion: angiosarcoma, dosed 30 weeks, study length 77 weeks
  TD50: 8030 mg/kg/day
mouse, strain Swiss, males, site: forestomach, lesion: epithelioma, dosed 30 weeks, study length 77 weeks
  TD50: 5190 mg/kg/day
mouse, strain Swiss, males, site: liver, lesion: angioma, dosed 30 weeks, study length 77 weeks
  TD50: 1080 mg/kg/day
mouse, strain Swiss, males, site: liver, lesion: angiosarcoma, dosed 30 weeks, study length 77 weeks
  TD50: 70.8 mg/kg/day
mouse, strain Swiss, males, site: liver, lesion: hepatoma, dosed 30 weeks, study length 77 weeks
  TD50: 25200 mg/kg/day
mouse, strain Swiss, males, site: lung, lesion: adenoma, dosed 30 weeks, study length 77 weeks
  TD50: 14 mg/kg/day
mouse, strain Swiss, males, site: skin, lesion: epithelioma, dosed 30 weeks, study length 77 weeks
  TD50: 2690 mg/kg/day
